From ChEMBL document CHEMBL4041523, “Design, synthesis, and evaluation of asymmetric EF24 analogues as potential anti-cancer agents for lung cancer” (Eur J Med Chem, 2017)
Calls of active or inactive are those of the source. No cut-off for these calls is given here.

Assays:
[1] = test system: Lewis lung carcinoma cell line; experiment: Cytotoxicity against mouse LLC cells measured after 72 hrs by MTT assay; type: functional, cell-based
NCI-H1650 = experiment: Cytotoxicity against human NCI-H1650 cells measured after 72 hrs by MTT assay; type: functional, cell-based; details: NCI-H1650, 72 h
A549 [2] = experiment: Cytotoxicity against human A549 cells measured after 72 hrs by MTT assay; type: functional, cell-based; details: for IC50: A549, 72 h
A549 [3] = experiment: Induction of apoptosis in human A549 cells at 20 uM measured after 48 hrs by Annexin-V-FITC/propidium iodide staining based flow cytometry (reference value: 5.91 %); type: functional
A549 [4] = experiment: Induction of apoptosis in human A549 cells assessed as increase in Bax expression measured after 24 hrs by Western blot analysis; type: functional, cell-based
A549 [5] = experiment: Induction of apoptosis in human A549 cells assessed as increase in Bax expression at 10 uM measured after 24 hrs Western blot analysis; type: functional, cell-based
A549 [6] = experiment: Anti-migratory activity against human A549 cells assessed as reduction in cell migration at 5 uM measured after 24 to 72 hrs by wound healing assay relative to control; type: functional; parameters: scale not given: the % may be the effect or the level left
[7] = target: T1, c-Jun N-terminal kinase, JNK (Homo sapiens) (UniProt P45983+P53779+P45984); experiment: Induction of ROS-induced JNK phosphorylation in human A549 cells at 10 uM measured after 24 hrs by Western blot analysis; type: cell-based
A549 [8] = experiment: Induction of apoptosis in human A549 cells assessed as cell shrinkage measured after 72 hrs by Hoechst 33258 staining based fluorescent microscopic analysis; type: functional
A549 [9] = experiment: Induction of apoptosis in human A549 cells assessed as increase in Bax expression at 10 uM in presence of ROS inhibitor NAC measured after 24 hrs Western blot analysis; type: functional, cell-based
A549 [10] = experiment: Antiproliferative activity against human A549 cells assessed as reduction in colony formation measured after 7 days by crystal violet staining based assay; type: functional, cell-based
A549 [11] = experiment: Induction of apoptosis in human A549 cells assessed as increase in ROS production at 10 uM by DCFH-DA staining based flow cytometry; type: functional, cell-based; details: TDE = time-dependent effect
A549 [12] = experiment: Induction of apoptosis in human A549 cells assessed as reduction in Bcl-2 expression at 10 uM in presence of ROS inhibitor NAC measured after 24 hrs Western blot analysis; type: functional, cell-based
A549 [13] = experiment: Induction of apoptosis in human A549 cells assessed as increase in cleaved caspase-3 level at 20 uM measured after 24 hrs by Western blot analysis; type: functional, cell-based
A549 [14] = experiment: Anti-migratory activity against human A549 cells assessed as reduction in cell migration at 10 uM measured after 24 to 72 hrs by wound healing assay relative to control; type: functional; parameters: scale not given: the % may be the effect or the level left
A549 [15] = experiment: Induction of apoptosis in human A549 cells assessed as reduction in Bcl-2 expression measured after 24 hrs by Western blot analysis; type: functional, cell-based
A549 [16] = experiment: Induction of apoptosis in human A549 cells assessed as ROS production at 10 uM measured after 12 hrs by DCFH-DA staining based flow cytometry (reference value: 7.19 %); type: functional
A549 [17] = experiment: Induction of apoptosis in human A549 cells assessed as formation of apoptotic bodies measured after 72 hrs by Hoechst 33258 staining based fluorescent microscopic analysis; type: functional, cell-based
A549 [18] = experiment: Induction of apoptosis in human A549 cells assessed as ROS production at 10 uM in presence of ROS inhibitor NAC measured after 12 hrs by DCFH-DA staining based flow cytometry (reference value: 7.19 %); type: functional
[19] = target: T2, NF-kappa-B inhibitor alpha (Homo sapiens) (UniProt P25963); experiment: Inhibition of TNF-alpha induced IkappaBalpha degradation in human A549 cells measured after 24 hrs by Western blot analysis; type: cell-based
T2 sequence (whole entry): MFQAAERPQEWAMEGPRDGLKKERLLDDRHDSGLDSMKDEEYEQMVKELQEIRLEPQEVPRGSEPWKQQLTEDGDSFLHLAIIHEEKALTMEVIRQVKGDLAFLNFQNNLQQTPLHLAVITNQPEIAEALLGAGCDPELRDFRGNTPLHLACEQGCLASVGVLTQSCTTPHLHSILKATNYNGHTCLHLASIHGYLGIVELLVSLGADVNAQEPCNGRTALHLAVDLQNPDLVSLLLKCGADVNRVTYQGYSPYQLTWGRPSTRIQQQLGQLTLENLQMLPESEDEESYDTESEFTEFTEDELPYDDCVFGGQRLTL

A549 [20] = experiment: Anti-migratory activity against human A549 cells assessed as reduction in cell migration measured after 24 to 72 hrs by wound healing assay; type: functional, cell-based
[21] = target: T1, c-Jun N-terminal kinase, JNK (Homo sapiens); experiment: Induction of ROS-induced JNK phosphorylation in human A549 cells at 10 uM in presence of ROS inhibitor NAC measured after 24 hrs Western blot analysis; type: cell-based
A549 [22] = experiment: Anti-migratory activity against human A549 cells assessed as reduction in cell migration at 20 uM measured after 24 to 72 hrs by wound healing assay relative to control; type: functional; parameters: scale not given: the % may be the effect or the level left
A549 [23] = experiment: Induction of apoptosis in human A549 cells measured after 48 hrs by Annexin-V-FITC/propidium iodide staining based flow cytometry; type: functional, cell-based
[24] = target: Transcription factor p65 (Homo sapiens) (UniProt Q04206); experiment: Inhibition of TNF-alpha stimulated P65 nuclear translocation in human A549 cells at 10 uM pretreated for 2 hrs followed by TNF-alpha induction measured after 20 mins DAPI-staining based assay; type: cell-based
A549 [25] = experiment: Induction of apoptosis in human A549 cells at 5 uM measured after 48 hrs by Annexin-V-FITC/propidium iodide staining based flow cytometry (reference value: 5.91 %); type: functional
A549 [26] = experiment: Induction of apoptosis in human A549 cells assessed as chromatin condensation measured after 72 hrs by Hoechst 33258 staining based fluorescent microscopic analysis; type: functional, cell-based
A549 [27] = experiment: Induction of apoptosis in human A549 cells at 10 uM measured after 48 hrs by Annexin-V-FITC/propidium iodide staining based flow cytometry (reference value: 5.91 %); type: functional
A549 [28] = experiment: Induction of apoptosis in human A549 cells assessed as reduction in Bcl-2 expression at 10 uM measured after 24 hrs Western blot analysis; type: functional, cell-based

Sequence of Transcription factor p65 (Homo sapiens) (Q04206 whole entry): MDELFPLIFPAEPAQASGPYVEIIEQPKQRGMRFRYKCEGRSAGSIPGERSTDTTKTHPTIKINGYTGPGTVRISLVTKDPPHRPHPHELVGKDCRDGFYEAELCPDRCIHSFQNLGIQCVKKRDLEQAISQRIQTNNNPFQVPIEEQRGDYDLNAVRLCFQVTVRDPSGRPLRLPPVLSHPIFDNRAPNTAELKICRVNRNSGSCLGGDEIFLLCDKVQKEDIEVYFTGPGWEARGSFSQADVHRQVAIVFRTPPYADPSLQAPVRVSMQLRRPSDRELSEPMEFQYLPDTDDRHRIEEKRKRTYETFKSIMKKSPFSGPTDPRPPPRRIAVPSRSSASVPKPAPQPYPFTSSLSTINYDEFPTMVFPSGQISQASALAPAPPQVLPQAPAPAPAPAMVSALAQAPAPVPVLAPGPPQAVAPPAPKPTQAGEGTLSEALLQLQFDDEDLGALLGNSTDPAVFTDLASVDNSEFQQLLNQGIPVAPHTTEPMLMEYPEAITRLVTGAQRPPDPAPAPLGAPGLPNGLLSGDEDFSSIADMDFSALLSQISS

`O=C1/C(=C/c2ccccc2F)COC/C1=C\c1ccccc1Br` was tested, and the IC50 [1] was 13.3 µM, the IC50 (NCI-H1650) was 6.5 µM and the IC50 (A549 [2]) was 6.5 µM.
`Cc1ccc2nc(NCCN)c3ncc(C)n3c2c1` [BMS-345541] was tested, and the IC50 [1] was 4.8 µM, the IC50 (NCI-H1650) was 19.9 µM and the IC50 (A549 [2]) was 5.6 µM. The Activity (A549 [3]) was 16.57%.
With `COc1cc(/C=C2\COC/C(=C\c3ccccc3F)C2=O)cc(OC)c1OC` the Activity (A549 [4]) was “Dose-dependent effect”, the Activity (A549 [5]) was “Active” and the Activity (A549 [6]) was 82.2%. The IC50 [1] was 6.1 µM, the Activity [7] was “Active” and the Activity (A549 [8]) was “Dose-dependent effect”. For the same molecule, the Activity (A549 [9]) was “inactive”, the IC50 (NCI-H1650) was 6.8 µM and the Activity (A549 [10]) was “Dose-dependent effect”. For the same molecule, the Activity (A549 [2]) was “Dose-dependent effect”, the IC50 (A549 [2]) was 6.3 µM and the Activity (A549 [11]) was “Tde”. The Activity (A549 [12]) was “inactive”, the Activity (A549 [3]) was 20.4% and the Activity (A549 [13]) was “Active”. For the same molecule, the Activity (A549 [14]) was 68.7%, the Activity (A549 [15]) was “Dose-dependent effect” and the Activity (A549 [16]) was 9.81%. The Activity (A549 [17]) was “Dose-dependent effect”, the Activity (A549 [18]) was 5.19% and the inhibition [19] was “Dose-dependent effect”. For the same molecule, the Activity (A549 [20]) was “Dose-dependent effect”, the Activity [21] was “inactive” and the Activity (A549 [22]) was 37.9%. For the same molecule, the Activity (A549 [23]) was “Dose-dependent effect”, the inhibition [24] was “Active” and the Activity (A549 [25]) was 6.55%. For the same molecule, the Activity (A549 [26]) was “Dose-dependent effect”, the Activity (A549 [27]) was 9.26% and the Activity (A549 [28]) was “Active”.
Work on `COc1cc(/C=C2\COC/C(=C\c3ccccc3F)C2=O)ccc1O` yielded an IC50 [1] of 13.1 µM, an IC50 (NCI-H1650) of 18.5 µM and an IC50 (A549 [2]) of 21.4 µM.
With `COc1ccccc1/C=C1\COC/C(=C\c2ccccc2F)C1=O` the IC50 [1] was 15.4 to 17.7 µM, the IC50 (NCI-H1650) was 6.5 to 17.6 µM and the IC50 (A549 [2]) was 5.9 to 11.7 µM.
`O=C1/C(=C/c2ccccc2F)COC/C1=C\c1ccccc1C(=O)O` showed an IC50 [1] of 17.2 µM, an IC50 (NCI-H1650) of 15.2 µM and an IC50 (A549 [2]) of 27.9 µM.
Work on `O=C1/C(=C/c2cccc(O)c2)COC/C1=C\c1ccccc1F` yielded an IC50 [1] of 13.8 µM, an IC50 (NCI-H1650) of 5.7 µM and an IC50 (A549 [2]) of 7.4 µM.
`COc1ccc(/C=C2\COC/C(=C\c3ccccc3F)C2=O)cc1O` was tested, and the IC50 [1] was 9.6 µM, the IC50 (NCI-H1650) was 7.5 µM and the IC50 (A549 [2]) was 13.8 µM.
For `O=C1/C(=C/c2ccccc2F)COC/C1=C\c1ccc(Cl)cc1Cl`, the IC50 [1] was 29.4 µM, the IC50 (NCI-H1650) was 8.6 µM and the IC50 (A549 [2]) was 7.9 µM.
Work on `COc1cc(/C=C/C(=O)CC(=O)/C=C/c2ccc(O)c(OC)c2)ccc1O` [CURCUMIN] yielded an IC50 [1] of 24.7 µM, an IC50 (NCI-H1650) of 20.7 µM and an IC50 (A549 [2]) of 27.8 µM.
For `COc1ccc(OC)c(/C=C2\COC/C(=C\c3ccccc3F)C2=O)c1`, the IC50 [1] was 15.1 µM, the IC50 (NCI-H1650) was 6.8 µM and the IC50 (A549 [2]) was 8.7 µM.
Work on `O=C1/C(=C/c2ccccc2F)CNC/C1=C\c1ccccc1F` yielded an IC50 [1] of 8.4 µM, an IC50 (NCI-H1650) of 14.6 µM and an IC50 (A549 [2]) of 7.1 µM.
`O=C1/C(=C/c2ccccc2)COC/C1=C\c1ccccc1F` was tested, and the IC50 [1] was 16 µM, the IC50 (NCI-H1650) was 9.6 µM and the IC50 (A549 [2]) was 17.6 µM.
